Reference: patent publication US20160031839A1, “ARGININE […] INHIBITORS AND USES THEREOF” (EPIZYME, INC., priority 2013, published 2016)
Where two headings read alike, the source gives them in different places.

System: mono-methyl arginine in RKO cells
Assay: RKO Methylation Assay (In Cell Western)
Assay type: cell-based
Conditions: Homo sapiens, 72 hours
Excerpt: RKO Methylation Assay RKO adherent cells were purchased from ATCC (American Type Culture Collection), Manassas, Va., USA. DMEM/Glutamax medium, penicillin-streptomycin, heat inactivated fetal bovine serum, 0.05% trypsin and D-PBS were purchased from Life Technologies, Grand Island, N.Y., USA. Odyssey blocking buffer, 800CW goat anti-rabbit IgG (H+L) antibody, and Licor Odyssey infrared scanner were purchased from Licor Biosciences, Lincoln, Nebr., USA. Mono-methyl arginine antibody was purchased from Cell Signaling Technology, Danvers, Mass., USA. Methanol was purchased from VWR, Franklin, Mass., USA. 10% Tween 20 was purchased from KPL, Inc., Gaithersburg, Md., USA. DRAQ5 was purchased from Biostatus Limited, Leicestershire, UK. RKO adherent cells were maintained in growth medium (DMEM/Glutamax medium supplemented with 10% v/v heat inactivated fetal bovine serum and 100 units/mL penicillin-streptomycin) and cultured at 37° C. under 5% CO2. Cell Treatment, in Cell Western (ICW) for Detection of Mono-Methyl Arginine and DNA Content. RKO cells were seeded in assay medium at a concentration of 20,000 cells per mL to a poly-D-lysine coated 384 well culture plate (BD Biosciences 356697) with 50 μL per well. Compound (100 nL) from a 96-well source plate was added directly to 384 well cell plate. Plates were incubated at 37° C., 5% CO2 for 72 hours. After three days of incubation, plates were brought to room temperature outside of the incubator for ten minutes and blotted on paper towels to remove cell media. 50 μL of ice cold 100% methanol was added directly to each well and incubated for 30 min at room temperature. After 30 min, plates were transferred to a Biotek EL406 plate washer and washed 2 times with 100 μL per well of wash buffer (1×PBS). Next 60 μL per well of Odyssey blocking buffer (Odyssey Buffer with 0.1% Tween 20 (v/v)) were added to each plate and incubated 1 hour at room temperature. Blocking buffer was removed and 20 μL per well of primary antibody was added (mono-methyl arginine diluted 1:200 in Odyssey buffer with 0.1% Tween 20 (v/v)) and plates were incubated overnight (16 hours) at 4° C. Plates were washed 5 times with 100 μL per well of wash buffer. Next 20 μL per well of secondary antibody was added (1:200 800CW goat anti-rabbit IgG (H+L) antibody, 1:1000 DRAQ5 (Biostatus limited) in Odyssey buffer with 0.1% Tween 20 (v/v)) and incubated for 1 hour at room temperature. The plates were washed 5 times with 100 μL per well wash buffer then 2 times with 100 μL per well of water. Plates were allowed to dry at room temperature then imaged on the Licor Odyssey machine which measures integrated intensity at 700 nm and 800 nm wavelengths. Both 700 and 800 channels were scanned. […] Each plate included fourteen control wells of DMSO only treatment (minimum activation) as well as fourteen control wells for maximum activation treated with 20 μM of a reference compound. The average of the ratio values for each control type was calculated and used to determine the percent activation for each test well in the plate. Reference compound was serially diluted three-fold in DMSO for a total of nine test concentrations, beginning at 20 μM. Percent activation was determined and EC30 curves were generated using triplicate

[1] = numerical, single experiment or average of multiple experiments, read-out: In Cell Western EC30
[2] = read-out: In Cell Western EC30 (class)

SMILES | EC30 [1] | EC30 [2]
CN(CCN)Cc1nsnc1-c1ccc(C#N)cc1 [Compound 7, 4-(4-(((2-aminoethyl)(methyl)amino)methyl)-1,2,5-thiadiazol-3-yl)benzonitrile] | > 20 µM | ≥ 12 µM
CN(CCN)Cc1[nH]cnc1-c1ccc(C#N)cc1 [Compound 10, 4-(5-(((2-aminoethyl)(methyl)amino)methyl)-1H-imidazol-4-yl)benzonitrile] | > 20 µM | ≥ 12 µM
CN(CCN)Cc1cnnn1-c1ccc(C#N)cc1 [Compound 5, 4-(5-(((2-aminoethyl)(methyl)amino)methyl)-1H-1,2,3-triazol-1-yl)benzonitrile] | > 20 µM | ≥ 12 µM
CN(CCN)Cc1ccnn1-c1ccc(C#N)cc1 [Compound 2, 4-(5-(((2-aminoethyl)(methyl)amino)methyl)-1H-pyrazol-1-yl)benzonitrile] | 15.1 µM | ≥ 12 µM
CN(CCN)Cc1ccnn1-c1ccc(Oc2ccccc2)cc1 [Compound 9] | 2.31 µM | ≤ 3 µM
CN(CCN)Cc1ocnc1-c1ccc(C#N)cc1 [Compound 4, 4-(5-(((2-aminoethyl)(methyl)amino)methyl)oxazol-4-yl)benzonitrile] | 1.41 µM | ≤ 3 µM
CN(CCN)Cc1cncn1-c1ccc(C#N)cc1 [Compound 6, 4-(5-(((2-aminoethyl)(methyl)amino)methyl)-1H-imidazol-1-yl)benzonitrile] | > 20 µM | ≥ 12 µM
CN(CCN)Cc1n[nH]nc1-c1ccc(C#N)cc1 [Compound 3, 4-(5-(((2-aminoethyl)(methyl)amino)methyl)-2H-1,2,3-triazol-4-yl)benzonitrile] | 18.6 µM | ≥ 12 µM
CN(CCN)Cc1oncc1-c1ccc(F)cc1 [Compound 11, N^1-((4-(4-fluorophenyl)isoxazol-5-yl)methyl)-N^1-methylethane-1,2-diamine] | > 20 µM | ≥ 12 µM
CN(CCN)Cc1ncoc1-c1ccc(C#N)cc1 [Compound 1, 4-(4-(((2-aminoethyl)(methyl)amino)methyl)oxazol-5-yl)benzonitrile] | 14.2 µM | ≥ 12 µM
CC(C)Oc1ccc(-n2nccc2CN(C)CCN)cc1 [Compound 8, N^1-((1-(4-isopropoxyphenyl)-1H-pyrazol-5-yl)methyl)-N^1-methylethane-1,2-diamine] | 1.63 µM | ≤ 3 µM
